Here are results for 6 molecules from paper PMC10157847 (ACS Omega, 2023).

In this assay the target is T1, α-amylase from porcine pancreatic (Sus scrofa, UniProt P00690).
T1 sequence (P00690 16-511): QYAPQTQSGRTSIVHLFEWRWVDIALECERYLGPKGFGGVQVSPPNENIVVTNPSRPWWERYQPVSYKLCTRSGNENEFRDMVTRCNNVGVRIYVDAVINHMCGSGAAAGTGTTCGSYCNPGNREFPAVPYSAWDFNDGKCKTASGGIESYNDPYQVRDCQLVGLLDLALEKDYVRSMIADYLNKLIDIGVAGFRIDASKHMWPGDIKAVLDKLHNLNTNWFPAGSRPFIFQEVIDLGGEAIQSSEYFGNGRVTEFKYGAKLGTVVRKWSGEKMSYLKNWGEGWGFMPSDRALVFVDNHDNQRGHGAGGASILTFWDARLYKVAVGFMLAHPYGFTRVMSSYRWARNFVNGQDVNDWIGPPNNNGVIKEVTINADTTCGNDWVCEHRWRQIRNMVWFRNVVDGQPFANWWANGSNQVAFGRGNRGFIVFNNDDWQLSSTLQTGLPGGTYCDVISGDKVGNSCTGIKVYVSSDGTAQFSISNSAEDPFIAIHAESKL
Kind of assay: In vitro α-amylase inhibition assay. It is filed as biochemical.

Read-outs that look alike come from different tables or passages of the source.

`Cc1ccc([N+](=O)[O-])cc1S(=O)(=O)N/N=C1\C(=O)Nc2ccc([N+](=O)[O-])cc21` [Compound 4] came in with a half-inhibitory concentration (IC50) of 13.3 ± 0.3 µM.

In turn, `O=C1Nc2ccc([N+](=O)[O-])cc2/C1=N/NS(=O)(=O)c1ccc([N+](=O)[O-])cc1` [Compound 5] showed an IC50 of 13.2 ± 0.2 µM. Regarding `Cc1ccc([N+](=O)[O-])cc1S(=O)(=O)N/N=C1\C(=O)Nc2ccccc21` [Compound 9], inhibition was half-maximal at 13.2 ± 0.3 µM (IC50).

`O=C1Nc2ccccc2/C1=N/NS(=O)(=O)c1ccc([N+](=O)[O-])cc1` [Compound 10] showed an IC50 of 13.2 ± 0.2 µM. In the case of `Cc1ccc([N+](=O)[O-])cc1S(=O)(=O)N/N=C1\C(=O)Nc2ccc(Cl)cc21` [Compound 15, (Z)-N'-(5-chloro-2-oxoindolin-3-ylidene)-2-methyl-5-nitrobenzenesulfonohydrazide], the IC50 was found to be 14.9 ± 0.2 µM. As to `O=C1Nc2ccc(Cl)cc2/C1=N/NS(=O)(=O)c1ccc([N+](=O)[O-])cc1` [Compound 16, (Z)-N'-(5-chloro-2-oxoindolin-3-ylidene)-4-nitrobenzenesulfonohydrazide], for the setting “read-out: IC50 ± SEM Alpha-amylase, porcine pancreatic α-amylase, starch”, the 50% inhibitory concentration (IC50) is 12.3 ± 20 µM.

One may read the IC50 as the concentration needed to halve the response being measured.
